Assay results published in patent publication US8969325B2, “TRPV1 antagonists” (AbbVie Inc., priority 2011, dated 2015).

Key:
human TRPV1 [1] = target: T1, human TRPV1 (Homo sapiens (Human), UniProt Q8NER1); assay: Capsaicin Activation Assay (intracellular Ca2+, FLIPR); type: cell-based; settings: recombinant HEK293 cells expressing hTRPV1, 50 nM capsaicin
How it was run: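 Stably transfected HEK293 cells expressing human TRPV1 cDNA, plated the day before in poly-D-lysine plates. Compounds serially diluted from 10 mM DMSO stocks; intracellular Ca2+ fluorescence read on FLIPR at 1 to 5 second intervals.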

human TRPV1 [2] = target: T1, human TRPV1; assay: Acid Activation Assay (pH 5.0, intracellular Ca2+, FLIPR); type: cell-based; settings: percentage of the maximal pH 5.0-induced response remaining; recombinant HEK293 hTRPV1 cells; maximum concentration tested 37.5 μM
How it was run: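 HEK293 cells stably expressing recombinant hTRPV1, loaded with Calcium-4 dye 90-120 min at 25° C. Compounds added over a 12-point half-log range (top 37.5 μM), then pH 5.0 DPBS/MES challenge after 3 min; FLIPR peak fluorescence over baseline given as % of maximal pH 5.0 response.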

T1 sequence (Q8NER1 whole entry): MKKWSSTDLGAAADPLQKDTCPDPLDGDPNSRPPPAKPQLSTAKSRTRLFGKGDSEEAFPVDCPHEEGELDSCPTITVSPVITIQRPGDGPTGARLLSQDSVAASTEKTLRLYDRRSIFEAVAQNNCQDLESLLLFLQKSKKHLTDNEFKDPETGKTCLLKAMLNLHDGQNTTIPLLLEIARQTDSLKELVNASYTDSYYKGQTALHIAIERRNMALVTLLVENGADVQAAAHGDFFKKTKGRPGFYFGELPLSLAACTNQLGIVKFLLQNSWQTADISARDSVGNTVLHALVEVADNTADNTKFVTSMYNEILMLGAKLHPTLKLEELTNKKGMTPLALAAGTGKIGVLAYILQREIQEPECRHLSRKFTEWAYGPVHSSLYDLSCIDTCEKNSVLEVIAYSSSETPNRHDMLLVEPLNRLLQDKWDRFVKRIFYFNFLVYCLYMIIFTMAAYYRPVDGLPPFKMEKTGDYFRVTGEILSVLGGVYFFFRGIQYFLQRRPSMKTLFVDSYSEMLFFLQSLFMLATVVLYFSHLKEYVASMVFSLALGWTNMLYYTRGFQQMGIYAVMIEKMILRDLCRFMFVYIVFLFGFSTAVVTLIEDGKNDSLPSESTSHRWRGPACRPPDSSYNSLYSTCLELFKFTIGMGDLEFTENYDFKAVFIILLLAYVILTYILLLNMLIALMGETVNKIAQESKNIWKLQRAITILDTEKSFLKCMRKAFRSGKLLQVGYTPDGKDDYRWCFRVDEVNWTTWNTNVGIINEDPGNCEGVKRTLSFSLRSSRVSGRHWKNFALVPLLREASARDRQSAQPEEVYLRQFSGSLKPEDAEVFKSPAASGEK

Row | Structure (SMILES) | IC50 (human TRPV1 [1]) [nM] | human TRPV1 H^+ (max % remain) (human TRPV1 [2]) [%]
1 | CN1Cc2ccc(NC(=O)N[C@@H]3CC(CF)(CF)Oc4cc(Cl)ccc43)cc2NC1=O [Example 170, 1-[(4R)-7-chloro-2,2-bis(fluoromethyl)-3,4-dihydro-2H-chromen-4-yl]-3-(3-methyl-2-oxo-1,2,3,4-tetrahydroquinazolin-7-yl)urea] | 130 | 16
2 | CCC1(CC)C[C@@H](NC(=O)Nc2ccc3c(c2)NC(=O)CC3)c2ccc(Cl)cc2O1 [Example 225, 1-[(4R)-7-chloro-2,2-diethyl-3,4-dihydro-2H-chromen-4-yl]-3-(2-oxo-1,2,3,4-tetrahydroquinolin-7-yl)urea] | 130 | 12
3 | CC1(C)C[C@@H](NC(=O)Nc2ccc3c(c2)NC(=O)CC3)c2ccc(Cl)cc2O1 [Example 235, 1-[(4R)-7-chloro-2,2-dimethyl-3,4-dihydro-2H-chromen-4-yl]-3-(2-oxo-1,2,3,4-tetrahydroquinolin-7-yl)urea] | 1300 | 29
4 | O=C1COc2c(cccc2NC(=O)N[C@@H]2CC(CF)(CF)Oc3cc(Cl)ccc32)N1 [Example 323, 1-[(4R)-7-chloro-2,2-bis(fluoromethyl)-3,4-dihydro-2H-chromen-4-yl]-3-(3-oxo-3,4-dihydro-2H-1,4-benzoxazin-8-yl)urea] | 4.5 | 0
5 | C[C@]1(C(F)(F)F)C[C@@H](NC(=O)Nc2ccc3c(c2)NC(=O)CO3)c2ccccc2O1 [Example 126, 1-[(2R,4R)-2-methyl-2-(trifluoromethyl)-3,4-dihydro-2H-chromen-4-yl]-3-(3-oxo-3,4-dihydro-2H-1,4-benzoxazin-6-yl)urea] | 58 | 87
6 | CC1(C)C[C@@H](NC(=O)Nc2ccc3c(c2)NC(=O)N(CCO)C3)c2ccc(Cl)c(F)c2O1 [Example 61, 1-[(4R)-7-chloro-8-fluoro-2,2-dimethyl-3,4-dihydro-2H-chromen-4-yl]-3-[3-(2-hydroxyethyl)-2-oxo-1,2,3,4-tetrahydroquinazolin-7-yl]urea] | 1200 | 2
7 | O=C1COc2ccc(NC(=O)N[C@@H]3CCOc4cc(C(F)(F)F)ccc43)cc2N1 [Example 121, 1-(3-oxo-3,4-dihydro-2H-1,4-benzoxazin-6-yl)-3-[(4R)-7-(trifluoromethyl)-3,4-dihydro-2H-chromen-4-yl]urea] | > 38000 | 107
8 | CN1Cc2ccc(NC(=O)N[C@@H]3CC4(CCCC4)Oc4ccccc43)cc2NC1=O [Example 205, 1-[(4R)-3,4-dihydrospiro[chromene-2,1′-cyclopentan]-4-yl]-3-(3-methyl-2-oxo-1,2,3,4-tetrahydroquinazolin-7-yl)urea] | 400 | 56
9 | CN1Cc2ccc(NC(=O)N[C@@H]3CC(CF)(CF)Oc4ccccc43)cc2NC1=O [Example 197, 1-[(4R)-2,2-bis(fluoromethyl)-3,4-dihydro-2H-chromen-4-yl]-3-(3-methyl-2-oxo-1,2,3,4-tetrahydroquinazolin-7-yl)urea] | 1100 | 57
10 | CC1(C)C[C@@H](NC(=O)Nc2ccc3c(c2)NC(=O)CC3)c2ccc(F)c(Cl)c2O1 [Example 233, 1-[(4R)-8-chloro-7-fluoro-2,2-dimethyl-3,4-dihydro-2H-chromen-4-yl]-3-(2-oxo-1,2,3,4-tetrahydroquinolin-7-yl)urea] | 350 | 37
11 | CC1(C)C[C@@H](NC(=O)Nc2ccc3c(c2)NC(=O)CC3)c2cc(F)ccc2O1 [Example 232, 1-[(4R)-6-fluoro-2,2-dimethyl-3,4-dihydro-2H-chromen-4-yl]-3-(2-oxo-1,2,3,4-tetrahydroquinolin-7-yl)urea] | 140 | 32
12 | CN1C(=O)CCc2ccc(NC(=O)N[C@@H]3CCOc4ccc(F)cc43)cc21 [Example 282, 1-[(4R)-6-fluoro-3,4-dihydro-2H-chromen-4-yl]-3-(1-methyl-2-oxo-1,2,3,4-tetrahydroquinolin-7-yl)urea] | 410 | 81
13 | CCC1(CC)C[C@@H](NC(=O)Nc2cccc3c2ccc(=O)n3C)c2cccc(F)c2O1 [Example 66, 1-[(4R)-2,2-diethyl-8-fluoro-3,4-dihydro-2H-chromen-4-yl]-3-(1-methyl-2-oxo-1,2-dihydroquinolin-5-yl)urea] | 15 | 42
14 | O=C1COc2ccc(NC(=O)N[C@@H]3CC(CF)(CF)Oc4c(F)cccc43)cc2N1 [Example 116, 1-[(4R)-8-fluoro-2,2-bis(fluoromethyl)-3,4-dihydro-2H-chromen-4-yl]-3-(3-oxo-3,4-dihydro-2H-1,4-benzoxazin-6-yl)urea] | 2000 | 99
15 | Cn1c(=O)ccc2c(NC(=O)N[C@@H]3CC(C)(C)Oc4c3ccc(F)c4Cl)cccc21 [Example 22, 1-[(4R)-8-chloro-7-fluoro-2,2-dimethyl-3,4-dihydro-2H-chromen-4-yl]-3-(1-methyl-2-oxo-1,2-dihydroquinolin-5-yl)urea] | 15 | 47
16 | CN1Cc2ccc(NC(=O)N[C@@H]3CCOc4c3cccc4C(F)(F)F)cc2NC1=O [Example 200, 1-(3-methyl-2-oxo-1,2,3,4-tetrahydroquinazolin-7-yl)-3-[(4R)-8-(trifluoromethyl)-3,4-dihydro-2H-chromen-4-yl]urea] | 90 | 21
17 | CC1(C)C[C@@H](NC(=O)Nc2ccc3c(c2)NC(=O)CO3)c2ccc(F)c(F)c2O1 [Example 117, 1-[(4R)-7,8-difluoro-2,2-dimethyl-3,4-dihydro-2H-chromen-4-yl]-3-(3-oxo-3,4-dihydro-2H-1,4-benzoxazin-6-yl)urea] | 120 | 99
18 | CN1C(=O)CCc2ccc(NC(=O)N[C@@H]3CC(C)(C)Oc4cc(F)ccc43)cc21 [Example 253, 1-[(4R)-7-fluoro-2,2-dimethyl-3,4-dihydro-2H-chromen-4-yl]-3-(1-methyl-2-oxo-1,2,3,4-tetrahydroquinolin-7-yl)urea] | 110 | 31
19 | CCCC1(CCC)C[C@@H](NC(=O)Nc2ccc3c(c2)NC(=O)N(C)C3)c2cc(F)ccc2O1 [Example 185, 1-[(4R)-6-fluoro-2,2-dipropyl-3,4-dihydro-2H-chromen-4-yl]-3-(3-methyl-2-oxo-1,2,3,4-tetrahydroquinazolin-7-yl)urea] | 210 | 61
20 | O=C1COc2ccc(NC(=O)NCC3CCc4ccc(C(F)(F)F)cc4O3)cc2N1 (centres unmarked) [Example 132, 1-(3-oxo-3,4-dihydro-2H-1,4-benzoxazin-6-yl)-3-{[7-(trifluoromethyl)-3,4-dihydro-2H-chromen-2-yl]methyl}urea] | 31000 | 98
21 | CN1Cc2ccc(NC(=O)N[C@@H]3CCc4cc(F)ccc43)cc2NC1=O [Example 202, 1-[(1R)-5-fluoro-2,3-dihydro-1H-inden-1-yl]-3-(3-methyl-2-oxo-1,2,3,4-tetrahydroquinazolin-7-yl)urea] | 220 | 50
22 | CC1(C)C[C@@H](NC(=O)Nc2ccc3c(c2)NC(=O)N(CCO)C3)c2ccc(F)cc2O1 [Example 43, 1-[(4R)-7-fluoro-2,2-dimethyl-3,4-dihydro-2H-chromen-4-yl]-3-[3-(2-hydroxyethyl)-2-oxo-1,2,3,4-tetrahydroquinazolin-7-yl]urea] | 94 | 8
23 | C[C@H]1Oc2c(NC(=O)N[C@@H]3CC(CF)(CF)Oc4cc(Cl)ccc43)cccc2NC1=O [Example 134, 1-[(4R)-7-chloro-2,2-bis(fluoromethyl)-3,4-dihydro-2H-chromen-4-yl]-3-[(2R)-2-methyl-3-oxo-3,4-dihydro-2H-1,4-benzoxazin-8-yl]urea] | 8 | 0
24 | Cn1c(=O)ccc2c(NC(=O)N[C@@H]3CC(C)(C)Oc4c3ccc(Cl)c4F)cccc21 [Example 85, 1-[(4R)-7-chloro-8-fluoro-2,2-dimethyl-3,4-dihydro-2H-chromen-4-yl]-3-(1-methyl-2-oxo-1,2-dihydroquinolin-5-yl)urea] | 23 | 39
25 | CN1C(=O)CCc2ccc(NC(=O)N[C@@H]3CC(C)(C)Oc4cc(Cl)ccc43)cc21 [Example 277, 1-[(4R)-7-chloro-2,2-dimethyl-3,4-dihydro-2H-chromen-4-yl]-3-(1-methyl-2-oxo-1,2,3,4-tetrahydroquinolin-7-yl)urea] | 4200 | 33
26 | CCCC1(CCC)C[C@@H](NC(=O)Nc2cccc3c2ccc(=O)n3C)c2cccc(F)c2O1 [Example 75, 1-[(4R)-8-fluoro-2,2-dipropyl-3,4-dihydro-2H-chromen-4-yl]-3-(1-methyl-2-oxo-1,2-dihydroquinolin-5-yl)urea] | 24 | 50
27 | CN1C(=O)NCc2c(NC(=O)N[C@@H]3C[C@](C)(C(F)F)Oc4ccccc43)cccc21 [Example 12, 1-[(2R,4R)-2-(difluoromethyl)-2-methyl-3,4-dihydro-2H-chromen-4-yl]-3-(1-methyl-2-oxo-1,2,3,4-tetrahydroquinazolin-5-yl)urea] | 32 | 28
28 | CCC1(CC)C[C@@H](NC(=O)Nc2ccc3c(c2)NC(=O)N(C)C3)c2ccc(Cl)cc2O1 [Example 181, 1-[(4R)-7-chloro-2,2-diethyl-3,4-dihydro-2H-chromen-4-yl]-3-(3-methyl-2-oxo-1,2,3,4-tetrahydroquinazolin-7-yl)urea] | 210 | 28
